Literature values, collected in patent US11872314B2, “Pharmaceutical compositions” (Shin Nippon Biomedical Laboratories, Ltd., priority 2016, dated 2024).

Conditions: at 25° C.

COc1ccc2c(c1)c(CC(=O)O)c(C)n2C(=O)c1ccc(Cl)cc1 [Indomethacin, indomethacin]
Water solbility: 0.937 µg/mL
